Measurements taken from ChEMBL document CHEMBL4732091, “Design, synthesis and biological evaluation of novel thiosemicarbazone-indole derivatives targeting prostate cancer cells” (Eur J Med Chem, 2021).
pIC50: −log10 of the molar value.

Experiments:
[1] = tested on: MCF7; assay: Antiproliferative activity against human MCF7 cell line cells assessed as inhibition of cell proliferation measured after 72 hrs by MTT assay; format: functional, cell-based; conditions: MCF7, 72 h
[2] = tested on: ECa-109 cell line; assay: Antiproliferative activity against human ECa-109 cell line cells assessed as inhibition of cell proliferation measured after 72 hrs by MTT assay; format: functional, cell-based; conditions: ECa-109, 72 h
[3] = tested on: MGC-803; assay: Antiproliferative activity against human MGC-803 cell line cells assessed as inhibition of cell proliferation measured after 72 hrs by MTT assay; format: functional, cell-based; conditions: MGC-803, 72 h
[4] = tested on: DU-145; assay: Antiproliferative activity against human DU-145 cell line cells assessed as inhibition of cell proliferation measured after 72 hrs by MTT assay; format: functional, cell-based; conditions: DU-145, 72 h
[5] = Cytotoxicity against human WPMY-1 cell line cells assessed as inhibition of cell proliferation measured after 72 hrs by MTT assay; format: cell-based; conditions: WPMY-1, 72 h
[6] = tested on: PC-3; assay: Antiproliferative activity against human PC-3 cells assessed as inhibition of cell proliferation measured after 72 hrs by MTT assay; format: functional, cell-based; conditions: PC-3, 72 h

Compound | pIC50 [1] | pIC50 [3] | pIC50 [4] | pIC50 [6] | pIC50 [2] | pIC50 [5]
Cc1[nH]c2ccccc2c1CCNC(=O)c1ccc(NC(=S)N/N=C/c2ccc(C(=O)O)cn2)cc1 | < 4.70 | < 4.70 | 5.25 | 5.80 | 4.78 | 5.49
Cc1[nH]c2ccccc2c1CCNC(=O)c1ccc(NC(=S)N/N=C/c2ccccc2O)cc1 | < 4.70 | < 4.70 | 4.84 | 5.27 | 5.02 | 5.54
Cc1ccc(/C=N/NC(=S)NCc2ccc(C(=O)NCCc3c[nH]c4ccccc34)cc2)nc1 | 5.06 | 5.31 | 5.92 | 5.85 | 4.73 | 5.96
Cc1ncc(CO)c(/C=N/NC(=O)c2ccc(C(=O)NCCc3c(C)[nH]c4ccccc34)cc2)c1O | < 4.70 | < 4.70 | < 4.70 | < 4.70 | < 4.70 | < 4.70
CN(C(=S)NN=C(c1ccccn1)c1ccccn1)C1CCCCC1 | – | – | – | – | – | 6.15
COc1ccc2[nH]cc(CCNC(=O)c3ccc(NC(=S)N/N=C/c4ccc(C)cn4)cc3)c2c1 | 5.27 | 4.98 | 5.49 | 7.21 | 5.24 | 4.74
Cc1ccc(/C=N/NC(=S)Nc2ccc(C(=O)NCCc3c[nH]c4ccccc34)cn2)nc1 | 5.08 | 5.12 | 5.21 | 6.29 | 4.90 | 5.60
COc1ccc(/C=N/NC(=S)Nc2ccc(C(=O)NCCc3c[nH]c4ccc(OC)cc34)cc2)nc1 | 5.71 | 5.05 | 5.37 | 7.03 | 5.04 | < 4.70
COc1ccc2[nH]cc(CCNC(=O)c3ccc(NC(=S)N/N=C/c4ccc(O)cn4)cc3)c2c1 | < 4.70 | < 4.70 | 4.82 | 5.60 | < 4.70 | < 4.70
NC(=S)N/N=C/c1ncccc1N [TRIAPINE] | – | – | – | – | – | 5.30
Cc1[nH]c2ccccc2c1CCNC(=O)c1ccc(NC(=S)N/N=C/c2ccc(O)cn2)cc1 | < 4.70 | < 4.70 | 4.77 | 5.82 | 4.79 | < 4.70
Cc1[nH]c2ccccc2c1CCNC(=O)c1ccc(NC(=S)N/N=C/c2ccccn2)cc1 | 4.99 | 5.06 | 5.44 | 7.04 | 5.46 | 4.88
Cc1ccc(/C=N/NC(=S)Nc2ccc(C(=O)NCCc3c[nH]c4ccc(C)cc34)cc2)nc1 | 5.40 | 5.51 | 5.97 | 7.09 | 5.79 | 4.96
Cc1ccc(/C=N/NC(=S)NCCc2c[nH]c3ccccc23)nc1 | 5.04 | 5.25 | 5.50 | 6.22 | 5.35 | 5.63
Cc1[nH]c2ccccc2c1CCNC(=O)c1ccc(C(=O)NO)cc1 | < 4.70 | < 4.70 | < 4.70 | < 4.70 | < 4.70 | < 4.70
C/C(=N\Nc1ccc(C(=O)NCCc2c(C)[nH]c3ccccc23)cn1)c1ccccn1 | 6.06 | 5.37 | 5.69 | 6.39 | 6.18 | 6.35
COc1ccc2[nH]cc(CCNC(=O)c3ccc(NC(=S)N/N=C(\C)c4ccccn4)cc3)c2c1 | 5.27 | 5.40 | 5.23 | 6.02 | 5.19 | 5.35

Second part, led by results:

pIC50 [1] | pIC50 [3] | pIC50 [4] | pIC50 [6] | Compound | pIC50 [2] | pIC50 [5]
< 4.70 | < 4.70 | 4.73 | 4.77 | Cc1[nH]c2ccccc2c1CCNC(=O)c1ccc(NC(=S)N/N=C2/C(=O)Nc3ccccc32)cc1 | < 4.70 | < 4.70
5.09 | 5.34 | 5.65 | 5.65 | Cc1ccc(/C=N/NC(=S)NC2CCC(C(=O)NCCc3c[nH]c4ccccc34)CC2)nc1 (stereo unspecified) | 4.85 | 5.81
5.15 | 5.15 | 5.84 | 6.62 | Cc1ccc(/C=N/NC(=S)Nc2ccc(C(=O)NCCc3c[nH]c4ccccc34)cc2)nc1 | 5.40 | 4.90
5.20 | 5.20 | 5.39 | 7.08 | COc1ccc(/C=N/NC(=S)Nc2ccc(C(=O)NCCc3c(C)[nH]c4ccccc34)cc2)nc1 | 5.26 | < 4.70
< 4.70 | < 4.70 | 5.72 | 6.49 | Cc1[nH]c2ccccc2c1CCNC(=O)c1ccc(NC(=S)N/N=C/c2ccc(Br)cn2)cc1 | 4.86 | 5.75
4.99 | 4.95 | 5.28 | 6.34 | Cc1[nH]c2ccccc2c1CCNC(=O)c1ccc(NC(=S)N/N=C/c2ccc(Cl)cn2)cc1 | 4.84 | 5.75
5.19 | 5.20 | 5.40 | 6.15 | C/C(=N\NC(=S)Nc1ccc(C(=O)NCCc2c(C)[nH]c3ccccc23)cc1)c1ccccn1 | 5.22 | 5.45
5.19 | 5.27 | 5.38 | 6.88 | COc1ccc2[nH]cc(CCNC(=O)c3ccc(NC(=S)N/N=C/c4ccccn4)cc3)c2c1 | 5.30 | 4.91
5.14 | 5.57 | 6.03 | 6.92 | Cc1ccc(/C=N/NC(=S)Nc2ccc(C(=O)NCCc3c[nH]c4ccc(Cl)cc34)cc2)nc1 | 5.62 | 5.15
